Results on 19 compounds are retold here after patent US12454510B2, “Isophthalamide compound and use thereof” (METISA BIOTECHNOLOGY CO., LTD, priority 2019, dated 2025).

Read-outs that look alike come from different tables or passages of the source.

What all share (format): in vivo
One assay has as its system Plutella xylostella. The assay is described as follows: Insecticidal activity against Plutella xylostella, airbrush spray on cabbage leaf discs. As to conditions: foliar, 72 h; for pest or weed control at 0.05 µg/mL: 0.05 mg/L, Table 5, read-out: Lethality rate (%, 3 days after the treatment) 0.05 mg/L; for pest or weed control at 5 µg/mL: 5 mg/L, Table 5, read-out: Lethality rate (%, 3 days after the treatment) 5 mg/L. The protocol: (§1) After being dissolved in a mixed solvent of acetone/methanol (1:1), the test compound was diluted with water containing 0.1% (wt) Tween 80 to the desired concentration.
(§2) With Leucania separata, Plutella xylostella, and Chilo suppressalis as targets, airbrush spray method was used for the determination of the insecticidal activity.
(§3) Determination method: Cabbage leaves were punched into leaf discs with a diameter of 2 cm with a puncher, and Airbrush spray treatment was carried out at a pressure of 10 psi (approximately 0.7 kg/cm^2) on the front and back sides of each leaf disc, with a spray volume of the compound to be tested of 0.5 ml. After drying in the shade, 10 of 3rd instar larvae were introduced for each treatment, and each treatment was repeated 3 times for. After the treatment, it was placed in an observation room at 25° C. and a relative humidity of 60-70%, and 3 days after the treatment, the number of surviving insects was investigated, and the mortality rate was calculated.

The test system of the next assay is Chilo suppressalis. Put plainly: Insecticidal activity against Chilo suppressalis, sprayed Oryza sativa seedlings/stalks. The following applies: for Lethality rate (%, 3 days after the treatment) 0.5 mg/L / Lethality rate (%, 3 days after the treatment) 1 mg/L / Lethality rate (%, 3 days after the treatment) 10 mg/L: parallel comparison test, Table 6; for pest or weed control at 1 µg/mL / pest or weed control at 0.25 µg/mL / pest or weed control at 0.5 µg/mL: Chilo suppressalis, 72 h, 3 days after the treatment, 3rd instar larvae, read-out: lethality rate against Chilo suppressalis; for pest or weed control at 1 µg/mL: dose 1 mg/L; for pest or weed control at 0.25 µg/mL: dose 0.25 mg/L; for pest or weed control at 0.5 µg/mL: dose 0.5 mg/L. The protocol: as §1, §2
Determination method: 1) Preparation of Oryza sativa seedlings: Oryza sativa was cultivated in a constant temperature room (a temperature of 26-28V, a relative humidity of about 60-80%, and a light illumination of 16 hL:8 hD) in a small plastic cup with a diameter of 4.5 cm and a height of 4 cm, and when the Oryza sativa grew up to the 4-5 leaf stage, robust and consistent Oryza sativa seedlings were selected for chemical treatment, and 3 repetitions were performed for each treatment. 2) Preparation for test insects: Chilo suppressalis at 3rd instar larvae were raised continuously indoors. 3) The Oryza sativa stems were sprayed and insects were introduced. Spraying was performed uniformly on the whole plant of the Oryza sativa seedlings, with 15 ml of compound solution for each treatment. The blank control was treated first, and then the above operations were repeated in the order of the test concentration from low to high. After the Oryza sativa seedlings were sprayed, they were placed in a cool place to dry the liquid, and about 5 cm of stalks at the base of the stems were cut and fed to the test insects. A glass petri dish with a diameter of 90 mm was placed with filter paper at the bottom of the dish, and then was moisturized by adding water. After that, about 5 rice stalks and 10 larvae were placed in each dish, and the petri dish was sealed with a non-woven fabric and placed in a constant temperature room for cultivation. The number of remaining live insects was investigated 3 days after the treatment.

The subject of a further assay is Leucania separata. Put plainly: Insecticidal activity against Leucania separata, airbrush spray on corn leaf sections. The following applies: Mythimna separata, 72 h; dose 0.05 mg/L, 3 days after the treatment, 3rd instar larvae; read-out: lethality rate against Leucania separata. As to the method: as §1, §2
as §3, with “Corn” for “Cabbage”, “cut” for “punched”, “into” for “into leaf discs with a diameter of”, “leaf sections,” for “with a puncher,”, “section,” for “disc,”, “times.” for “times for.”

Setting [1] is: 0.5 mg/L, parallel comparison test, Table 5, read-out: Lethality rate (%, 3 days after the treatment) 0.5 mg/L.
Setting [2] is: 1 mg/L, parallel comparison test, Table 5, read-out: Lethality rate (%, 3 days after the treatment) 1 mg/L.
Where [3] appears, read: dose 1 mg/L, 3 days after the treatment, 3rd instar larvae, read-out: lethality rate against Plutella xylostella.
Setting [4] is: dose 0.5 mg/L, 3 days after the treatment, 3rd instar larvae, read-out: lethality rate against Plutella xylostella.

In the case of `N#CCCN(C(=O)c1ccncc1)c1cccc(C(=O)Nc2c(Br)cc(C(F)(C(F)(F)F)C(F)(F)F)cc2Br)c1F` [Compound 1-3], in the assay on Plutella xylostella (parallel comparison test), the pest or weed control at 0.05 µg/mL is 0% and the pest or weed control at 5 µg/mL came out at 100%. For the same compound, the pest or weed control at 0.5 µg/mL with Plutella xylostella (setting [1]) worked out at 13.3%. Besides, the pest or weed control at 1 µg/mL with Plutella xylostella (setting [2]) was 76.7%.
In the case of `N#CCCN(C(=O)c1ccc(F)nc1)c1cccc(C(=O)Nc2c(Br)cc(C(F)(C(F)(F)F)C(F)(F)F)cc2Br)c1F` [Compound 2], in the assay on Chilo suppressalis, the “Lethality rate (%, 3 days after the treatment) 0.5 mg/L” value worked out at 86.67%; the “Lethality rate (%, 3 days after the treatment) 1 mg/L” value was 100%; the “Lethality rate (%, 3 days after the treatment) 10 mg/L” value turned out to be 100%; the pest or weed control at 1 µg/mL is no less than 90%. The pest or weed control at 0.05 µg/mL with Leucania separata was no less than 90%. Also, in the assay with Plutella xylostella (parallel comparison test), the pest or weed control at 0.05 µg/mL amounted to 43.3% and the pest or weed control at 5 µg/mL is 100%. In addition, in the assay with Plutella xylostella (setting [1]), the pest or weed control at 0.5 µg/mL is 86.7%. Moreover, the pest or weed control at 1 µg/mL in the assay on Plutella xylostella (setting [2]) was found to be 100%. In addition, in the assay on Plutella xylostella (setting [3]), the pest or weed control at 1 µg/mL was no less than 90%.
Turning to `N#CCN(C(=O)c1ccc(C(F)(F)F)nc1)c1cccc(C(=O)Nc2c(I)cc(C(F)(C(F)(F)F)C(F)(F)F)cc2C(F)(F)F)c1F` [Compound 29], in the assay on Chilo suppressalis, the pest or weed control at 0.25 µg/mL is no less than 90%, the pest or weed control at 0.5 µg/mL was no less than 90% and the pest or weed control at 1 µg/mL was no less than 90%. Also, in the assay on Leucania separata, the pest or weed control at 0.05 µg/mL is no less than 90%. In addition, the pest or weed control at 0.5 µg/mL in the assay with Plutella xylostella (setting [4]) is no less than 90%. The pest or weed control at 1 µg/mL with Plutella xylostella (setting [3]) was no less than 90%.
As for `N#CCN(C(=O)c1ccc(C(F)(F)F)nc1)c1cccc(C(=O)Nc2c(Br)cc(C(F)(C(F)(F)F)C(F)(F)F)cc2C(F)(F)F)c1F` [Compound 25], in the assay with Chilo suppressalis, the pest or weed control at 0.25 µg/mL is no less than 90%, the pest or weed control at 0.5 µg/mL is no less than 90% and the pest or weed control at 1 µg/mL was no less than 90%. For the same compound, in the assay on Leucania separata, the pest or weed control at 0.05 µg/mL is no less than 90%. Also, the pest or weed control at 0.5 µg/mL in the assay with Plutella xylostella (setting [4]) is no less than 90%. The pest or weed control at 1 µg/mL in the assay on Plutella xylostella (setting [3]) was no less than 90%.
`N#CCCN(C(=O)c1ccc(Cl)nc1)c1cccc(C(=O)Nc2c(Br)cc(C(F)(C(F)(F)F)C(F)(F)F)cc2Br)c1F` [Compound 1-1]: the pest or weed control at 0.5 µg/mL in the assay on Plutella xylostella (setting [1]) turned out to be 6.67%. The pest or weed control at 1 µg/mL with Plutella xylostella (setting [2]) turned out to be 50%. Moreover, the pest or weed control at 5 µg/mL in the assay on Plutella xylostella (parallel comparison test) came to 93.3%.
Take `N#CCCCN(C(=O)c1ccc(F)nc1)c1cccc(C(=O)Nc2c(Br)cc(C(F)(C(F)(F)F)C(F)(F)F)cc2Br)c1F` [Compound 3]: the pest or weed control at 1 µg/mL in the assay on Chilo suppressalis and in the assay with Plutella xylostella (setting [3]) was no less than 90% each time. The pest or weed control at 0.05 µg/mL with Leucania separata was no less than 90%.
Consider `N#CCCN(C(=O)c1cnc(F)cn1)c1cccc(C(=O)Nc2c(Br)cc(C(F)(C(F)(F)F)C(F)(F)F)cc2Br)c1F` [Compound 1-6], for which, in the assay on Plutella xylostella (parallel comparison test), the pest or weed control at 0.05 µg/mL was found to be 0% and the pest or weed control at 5 µg/mL came out at 100%. The pest or weed control at 0.5 µg/mL with Plutella xylostella (setting [1]) worked out at 16.7%. Moreover, in the assay with Plutella xylostella (setting [2]), the pest or weed control at 1 µg/mL was determined as 60%.
In the same order, the values of `N#CCCN(C(=O)c1cnc(F)cn1)c1cccc(C(=O)Nc2c(Br)cc(C(F)(C(F)(F)F)C(F)(F)F)cc2C(F)(F)F)c1F` [Compound 2-6] are 20%, 100%, 60% and 90%.
In the case of `N#CCCN(C(=O)c1ccccn1)c1cccc(C(=O)Nc2c(Br)cc(C(F)(C(F)(F)F)C(F)(F)F)cc2Br)c1F` [Compound 1-4], the pest or weed control at 1 µg/mL in the assay on Plutella xylostella (setting [2]) came to 10%. The pest or weed control at 5 µg/mL in the assay on Plutella xylostella (parallel comparison test) worked out at 60%.
As to `N#CCCN(C(=O)c1cnc(F)nc1)c1cccc(C(=O)Nc2c(Br)cc(C(F)(C(F)(F)F)C(F)(F)F)cc2Br)c1F` [Compound 1-7], in the assay on Plutella xylostella (parallel comparison test), the pest or weed control at 0.05 µg/mL was determined as 0% and the pest or weed control at 5 µg/mL came to 100%. The pest or weed control at 0.5 µg/mL with Plutella xylostella (setting [1]) was 20%. In the assay with Plutella xylostella (setting [2]), the pest or weed control at 1 µg/mL worked out at 73.3%.
For `N#CCCN(C(=O)c1cccnc1)c1cccc(C(=O)Nc2c(Br)cc(C(F)(C(F)(F)F)C(F)(F)F)cc2Br)c1F` [Compound 1-2], in the assay on Chilo suppressalis, the “Lethality rate (%, 3 days after the treatment) 1 mg/L” value turned out to be 0% and the “Lethality rate (%, 3 days after the treatment) 10 mg/L” value was 0%. In addition, in the assay with Plutella xylostella (setting [1]), the pest or weed control at 0.5 µg/mL was determined as 0%. The pest or weed control at 1 µg/mL with Plutella xylostella (setting [2]) was 30%. In the assay on Plutella xylostella (parallel comparison test), the pest or weed control at 5 µg/mL was 90%.
With `N#CCCN(C(=O)c1cnccn1)c1cccc(C(=O)Nc2c(Br)cc(C(F)(C(F)(F)F)C(F)(F)F)cc2Br)c1F` [CK1, reference compound], in the assay on Chilo suppressalis, the “Lethality rate (%, 3 days after the treatment) 1 mg/L” value turned out to be 0% and the “Lethality rate (%, 3 days after the treatment) 10 mg/L” value came to 13.33%. Besides, the pest or weed control at 1 µg/mL in the assay with Plutella xylostella (setting [2]) is 0%. The pest or weed control at 5 µg/mL in the assay on Plutella xylostella (parallel comparison test) is 66.7%.
`N#CCCN(C(=O)c1ccncc1)c1cccc(C(=O)Nc2c(Br)cc(C(F)(C(F)(F)F)C(F)(F)F)cc2C(F)(F)F)c1F` [Compound 2-2]: in the assay with Plutella xylostella (parallel comparison test), the pest or weed control at 0.05 µg/mL was found to be 0% and the pest or weed control at 5 µg/mL stood at 100%. The pest or weed control at 0.5 µg/mL with Plutella xylostella (setting [1]) was 30%. The pest or weed control at 1 µg/mL in the assay on Plutella xylostella (setting [2]) turned out to be 93.3%.
For `N#CCCN(C(=O)c1ccccn1)c1cccc(C(=O)Nc2c(Br)cc(C(F)(C(F)(F)F)C(F)(F)F)cc2C(F)(F)F)c1F` [Compound 2-3], in the assay on Plutella xylostella (parallel comparison test), the pest or weed control at 0.05 µg/mL is 0% and the pest or weed control at 5 µg/mL turned out to be 100%. Further, the pest or weed control at 0.5 µg/mL in the assay on Plutella xylostella (setting [1]) is 10%. For the same compound, the pest or weed control at 1 µg/mL with Plutella xylostella (setting [2]) was determined as 40%.
The matching figures for `N#CCCN(C(=O)c1cccnc1)c1cccc(C(=O)Nc2c(Br)cc(C(F)(C(F)(F)F)C(F)(F)F)cc2C(F)(F)F)c1F` [Compound 2-1]: 0%, 100%, 20% and 60%.
In the same order, the values of `N#CCCN(C(=O)c1ccc(F)cn1)c1cccc(C(=O)Nc2c(Br)cc(C(F)(C(F)(F)F)C(F)(F)F)cc2C(F)(F)F)c1F` [Compound 2-4] are 33.3%, 100%, 63.3% and 90%.
The matching figures for `N#CCCN(C(=O)c1ccc(F)cn1)c1cccc(C(=O)Nc2c(Br)cc(C(F)(C(F)(F)F)C(F)(F)F)cc2Br)c1F` [Compound 1-5]: 0%, 83.3%, 33.3% and 60%.
Take `N#CCCN(C(=O)c1cnccn1)c1cccc(C(=O)Nc2c(Br)cc(C(F)(C(F)(F)F)C(F)(F)F)cc2C(F)(F)F)c1F` [Compound 2-5]: in the assay with Chilo suppressalis, the “Lethality rate (%, 3 days after the treatment) 0.5 mg/L” value worked out at 0%; the “Lethality rate (%, 3 days after the treatment) 1 mg/L” value stood at 23.33%; the “Lethality rate (%, 3 days after the treatment) 10 mg/L” value is reported as 70%. In addition, in the assay on Plutella xylostella (parallel comparison test), the pest or weed control at 0.05 µg/mL was 0% and the pest or weed control at 5 µg/mL came out at 100%. For the same compound, the pest or weed control at 0.5 µg/mL in the assay with Plutella xylostella (setting [1]) came to 23.3%. In the assay on Plutella xylostella (setting [2]), the pest or weed control at 1 µg/mL was 50%.
For the compound `N#CCCN(C(=O)c1cnc(F)nc1)c1cccc(C(=O)Nc2c(Br)cc(C(F)(C(F)(F)F)C(F)(F)F)cc2C(F)(F)F)c1F` [Compound 2-7], in the assay on Plutella xylostella (parallel comparison test), the pest or weed control at 0.05 µg/mL was 0% and the pest or weed control at 5 µg/mL worked out at 100%. Also, the pest or weed control at 0.5 µg/mL in the assay on Plutella xylostella (setting [1]) was determined as 53.3%. Moreover, in the assay with Plutella xylostella (setting [2]), the pest or weed control at 1 µg/mL was 96.7%.
